Molecules are shown by their SMILES.

Common to all, as to settings: concentration not given here
Assay [1] has as its system Alpha-amylase (Hordeum vulgare). Briefly: Inhibition of malt alpha-amylase. Set-up: concentration or dose not given beside the values.
The test system of another assay is Fungi. In words: Inhibition of fungal alpha-amylase. Set-up: concentration or dose not given beside the values.
Assay [2] concerns the target T1, Pancreatic alpha-amylase (Homo sapiens) (UniProt P04746).
T1 sequence (whole entry): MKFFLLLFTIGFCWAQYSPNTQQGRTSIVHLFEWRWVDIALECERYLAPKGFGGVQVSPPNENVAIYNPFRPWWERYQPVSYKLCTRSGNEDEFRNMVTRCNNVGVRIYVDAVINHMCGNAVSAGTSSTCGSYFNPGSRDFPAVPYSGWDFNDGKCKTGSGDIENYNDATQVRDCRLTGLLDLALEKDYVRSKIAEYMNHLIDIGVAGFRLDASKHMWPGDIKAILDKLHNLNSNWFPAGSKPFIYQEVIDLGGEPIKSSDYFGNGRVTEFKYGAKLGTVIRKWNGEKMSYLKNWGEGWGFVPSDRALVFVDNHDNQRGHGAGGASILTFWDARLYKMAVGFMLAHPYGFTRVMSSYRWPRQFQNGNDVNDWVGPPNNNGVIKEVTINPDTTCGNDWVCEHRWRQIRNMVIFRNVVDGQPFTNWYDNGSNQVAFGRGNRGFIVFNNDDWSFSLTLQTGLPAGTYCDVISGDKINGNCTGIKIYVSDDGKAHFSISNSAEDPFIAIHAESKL
In words: Inhibition of pancreatic alpha-amylase. Set-up: concentration or dose not given beside the values.

The subject of the next assay is Bacteria. Briefly: Inhibition of Alpha-amylase. Set-up: concentration or dose not given beside the values.
Assay [3] concerns the target T2, Alpha-amylase 1A (Homo sapiens) (UniProt P0DUB6).
T2 sequence (whole entry): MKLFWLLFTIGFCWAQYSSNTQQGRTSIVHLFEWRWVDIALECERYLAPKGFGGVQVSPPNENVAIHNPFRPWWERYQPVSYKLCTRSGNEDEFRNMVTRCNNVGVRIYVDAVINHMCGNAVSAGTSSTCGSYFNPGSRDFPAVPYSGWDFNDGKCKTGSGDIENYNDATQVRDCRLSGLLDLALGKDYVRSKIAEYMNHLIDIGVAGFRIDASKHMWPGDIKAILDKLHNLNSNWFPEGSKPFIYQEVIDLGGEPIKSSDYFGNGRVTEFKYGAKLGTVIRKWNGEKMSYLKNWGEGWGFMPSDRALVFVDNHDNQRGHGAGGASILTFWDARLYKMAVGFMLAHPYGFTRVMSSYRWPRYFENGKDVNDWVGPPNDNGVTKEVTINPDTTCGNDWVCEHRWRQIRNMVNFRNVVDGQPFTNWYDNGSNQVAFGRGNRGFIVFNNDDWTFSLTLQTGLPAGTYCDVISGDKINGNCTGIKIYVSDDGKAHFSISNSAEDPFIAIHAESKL
Briefly: Inhibition of salivary alpha-amylase.

Consider `COC1=C(OC)C(C2COC(C)(C)O2)OC1=O` (centres undefined), for which, in assay [1], the inhibition – broadly, the change of the read-out against control, counted positive when it falls – was 2%.
`COC1=C(OC)C(C(O)CO)OC1=O` (centres undefined) showed an inhibition in assay [1] of 4%.
With `CCCCCCCCCCCCCCCC(=O)OC[C@H](O)[C@H]1OC(=O)C(O)=C1O`, the inhibition is 70% in the assay on Fungi, 88% in assay [2], 84% in the assay with Bacteria and 69% in assay [3].
`COC1=C(OC)C(C(COC(C)=O)OC(C)=O)OC1=O` (centres undefined): in assay [1], the inhibition is 0%.
As for `O=C1O[C@H]([C@@H](O)CO)C(O)=C1O` (stereo in doubt; 1b), the inhibition in the assay with Fungi came to 98%; in assay [2], 100%; with Bacteria, 99%; in assay [3], 100%.
In assay [1], `CCCC(=O)OCC(O)C1OC(=O)C(OC)=C1OC` (centres undefined) yielded an inhibition of 10%.
Consider `CC1(C)OCC(C2OC(=O)C(O)=C2O)O1` (stereo in doubt; 2a), for which the inhibition is 94% in the assay on Fungi; 90% in assay [1]; 99% in assay [2]; 98% in the assay with Bacteria; 88% in assay [3].
As for `CC(=O)OCC(OC(C)=O)C1OC(O)=C(O)C1=O` (centres undefined), the inhibition in the assay on Fungi was found to be 91%; in assay [1], 89%; in assay [2], 99%; in the assay with Bacteria, 92%.
On to `CC1(C)OCC(C2OC(=O)C(O)=C2O)O1` (stereo in doubt; 2b), for which the inhibition in the assay on Fungi came to 91%; in assay [1] it was 93%; in assay [2] it was 99%; in the assay with Bacteria, 93%; in assay [3], 98%.
`CCC(=O)OCC(O)C1OC(=O)C(OC)=C1OC` (centres undefined) gave an inhibition in assay [1] of 7%.
The same measure, in the same setting: with `COC1=C(OC)C(C(O)COC(C)=O)OC1=O` (centres undefined) the figure was 3%.
`COC1=C(O)C(=O)OC1C1COC(C)(C)O1` (centres undefined): the inhibition with Fungi was 17%; in assay [1], 29%; in assay [2] it was 0%; with Bacteria, 8%.
In assay [1], `COC1=C(O)C(=O)OC1C(O)CO` (centres undefined) displayed an inhibition of 9%.
The same measure, in the same setting: in the case of `COC1=C(OC(C)=O)C(C2COC(C)(C)O2)OC1=O` (centres undefined) it was 9%.

For the origin of these results see ChEMBL document CHEMBL1130867, “Ascorbic acid-based inhibitors of alpha-amylases” (Bioorg Med Chem Lett, 1998).
